Test results from ChEMBL document CHEMBL3045745, “Antioxidant activity and inhibition effect on the growth of human colon carcinoma (HT-29) cells of esculetin from Cortex Fraxini” (Med Chem Res, 2011).
Converted amounts (≈) assume the structure as drawn. The source made the active and inactive calls. No cut-off for these calls is given here.

Columns and labels:
[1] = Antioxidant activity assessed as reduction of Mo(6) in phophomolybdenum at 0.5 mg/ml after 150 min by spectrophotometric analysis; format: functional
[2] = Antioxidant activity assessed as potassium ferricyanide reduction at 0.5 mg/ml after 20 min by spectrophotometric analysis; format: functional
[3] = Antioxidant activity assessed as potassium ferricyanide reduction at 0.05 mg/ml after 20 min by spectrophotometric analysis; format: functional
[4] = Antioxidant activity assessed as hydroxyl radical scavenging by resonance scattering method; format: functional
[5] = test system: Radical scavenging activity; experiment: Antioxidant activity assessed as DPPH radical scavenging at 0.5 mg/ml measured at 50 min by spectrophotometric analysis relative to control; format: functional
HT-29 [6] = experiment: Growth inhibition of Homo sapiens (human) HT-29 cells assessed as inhibition of [3H]hypoxanthine incorporation at higher concentration incubated for 18 hr prior to [3H]hypoxanthine addition measured after 4 to 6 hr; format: functional, cell-based
HT-29 [7] = experiment: Induction of Homo sapiens (human) HT-29 cell proliferation assessed as [3H]hypoxanthine incorporation at 0.25 to 2 mg/ml incubated for 18 hr prior to [3H]hypoxanthine addition measured after 4 to 6 hr; format: cell-based
[8] = Antioxidant activity assessed as reduction of Mo(6) in phophomolybdenum at 0.1 mg/ml after 150 min by spectrophotometric analysis; format: functional
[9] = test system: Radical scavenging activity; experiment: Antioxidant activity assessed as DPPH radical scavenging at 0.08 mg/ml measured at 50 min by spectrophotometric analysis relative to control; format: functional
[10] = test system: Radical scavenging activity; experiment: Antioxidant activity assessed as DPPH radical scavenging at 0.05 mg/ml measured at 50 min by spectrophotometric analysis relative to control; format: functional
[11] = test system: Radical scavenging activity; experiment: Antioxidant activity assessed as DPPH radical scavenging at 0.02 mg/ml measured at 50 min by spectrophotometric analysis relative to control; format: functional
[12] = test system: Radical scavenging activity; experiment: Antioxidant activity assessed as DPPH radical scavenging at 0.02 to 0.1 mg/ml measured within 10 min by spectrophotometric analysis; format: functional

| Compound | Activity [1] | Activity [2] | Activity [3] | IC50 [4] [µg/mL] | Activity [5] [%] | growth inhibition (GI) (HT-29 [6]) | Activity (HT-29 [7]) | Activity [8] | Activity [9] [%] | Activity [10] [%] | Activity [11] [%] | Activity [12] |
| --- | --- | --- | --- | --- | --- | --- | --- | --- | --- | --- | --- | --- |
| Cc1cc(C(C)(C)C)c(O)c(C(C)(C)C)c1 [BUTYLATED HYDROXYTOLUENE] | Active | Active | Active | 2.883 (≈ 13.1 µM) | 47.6 | – | – | – | – | – | – | – |
| O=c1ccc2cc(O)c(O)cc2o1 [ESCULETIN] | – | Active | Active | 0.091 (≈ 0.511 µM) | – | Dose-dependent effect | Toxic | Active | 79.7 | 59.9 | 28.1 | Active |
